The target in assay [1] is Serine/threonine-protein kinase 10 (Homo sapiens) (UniProt O94804). The assay can be described thus: Inhibition of LOK (unknown origin) assessed as remaining activity at 1 uM by Kinome scan method relative to control.
Assay [2] addresses Serine/threonine-protein kinase haspin (Homo sapiens) (UniProt Q8TF76). The assay can be described thus: Inhibition of human GSG2 assessed as residual activity at 1 uM using histon H3 as substrate in presence of 33P-ATP by ProQinase assay relative to control.
The target in assay [3] is T1, Serine/threonine-protein kinase Nek1 (Homo sapiens) (UniProt Q96PY6).
T1 sequence (whole entry): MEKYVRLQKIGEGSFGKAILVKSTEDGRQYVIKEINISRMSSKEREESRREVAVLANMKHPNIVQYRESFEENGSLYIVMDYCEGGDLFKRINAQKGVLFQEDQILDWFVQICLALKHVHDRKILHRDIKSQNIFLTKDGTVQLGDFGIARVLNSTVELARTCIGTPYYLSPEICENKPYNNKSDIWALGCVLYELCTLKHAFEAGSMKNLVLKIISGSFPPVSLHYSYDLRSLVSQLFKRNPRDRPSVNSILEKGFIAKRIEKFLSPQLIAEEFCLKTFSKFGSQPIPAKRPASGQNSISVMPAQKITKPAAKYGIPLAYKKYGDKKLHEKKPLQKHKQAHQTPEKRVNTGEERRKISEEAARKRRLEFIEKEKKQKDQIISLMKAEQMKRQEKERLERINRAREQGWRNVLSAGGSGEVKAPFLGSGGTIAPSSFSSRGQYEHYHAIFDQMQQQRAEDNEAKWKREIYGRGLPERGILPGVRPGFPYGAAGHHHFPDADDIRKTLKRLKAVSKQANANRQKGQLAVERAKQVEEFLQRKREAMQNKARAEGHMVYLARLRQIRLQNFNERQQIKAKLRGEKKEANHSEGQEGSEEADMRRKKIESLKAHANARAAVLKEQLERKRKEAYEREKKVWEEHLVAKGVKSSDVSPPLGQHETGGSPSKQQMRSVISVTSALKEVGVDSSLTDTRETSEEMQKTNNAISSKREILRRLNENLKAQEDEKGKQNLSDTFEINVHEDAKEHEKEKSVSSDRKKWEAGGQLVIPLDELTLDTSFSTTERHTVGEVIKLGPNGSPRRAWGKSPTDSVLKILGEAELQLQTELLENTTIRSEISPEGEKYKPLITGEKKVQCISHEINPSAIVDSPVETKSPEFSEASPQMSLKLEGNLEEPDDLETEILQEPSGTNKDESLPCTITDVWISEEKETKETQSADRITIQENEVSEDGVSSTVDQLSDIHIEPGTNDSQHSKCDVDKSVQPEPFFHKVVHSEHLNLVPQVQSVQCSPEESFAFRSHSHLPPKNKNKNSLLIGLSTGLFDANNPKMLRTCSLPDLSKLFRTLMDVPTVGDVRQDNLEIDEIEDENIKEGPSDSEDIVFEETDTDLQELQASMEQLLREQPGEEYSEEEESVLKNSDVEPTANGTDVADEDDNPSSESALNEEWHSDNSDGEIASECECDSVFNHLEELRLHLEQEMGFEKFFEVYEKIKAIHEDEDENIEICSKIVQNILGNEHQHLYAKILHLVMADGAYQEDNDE
In words: Inhibition of human NEK1 assessed as residual activity at 1 uM using RBER-CHKtide as substrate in presence of 33P-ATP by ProQinase assay relative to control.

Assay [4] deals with Ephrin type-B receptor 3 (Homo sapiens) (UniProt P54753). The assay can be described thus: Inhibition of human EPHB3 assessed as residual activity at 1 uM using polyEY as substrate in presence of 33P-ATP by ProQinase assay relative to control.
The target in assay [5] is Death-associated protein kinase 1 (Homo sapiens) (UniProt P53355). The assay can be described thus: Inhibition of human DAPK1 assessed as residual activity at 1 uM using RBER-GSK3 as substrate in presence of 33P-ATP by ProQinase assay relative to control.
Assay [6] deals with Proto-oncogene tyrosine-protein kinase receptor Ret (Homo sapiens) (UniProt P07949). In words: Inhibition of RET (unknown origin) assessed as remaining activity at 1 uM by Kinome scan method relative to control.
The target of assay [7] is Ephrin type-A receptor 4 (Homo sapiens) (UniProt P54764). The assay can be described thus: Inhibition of human EPHA4 assessed as residual activity at 1 uM using polyEY as substrate in presence of 33P-ATP by ProQinase assay relative to control.
For assay [8], the target named is Casein kinase I isoform gamma-2 (Homo sapiens) (UniProt P78368). The assay can be described thus: Inhibition of human CK1gamma2 assessed as residual activity at 1 uM using casein as substrate in presence of 33P-ATP by ProQinase assay relative to control.
The target of assay [9] is Serine/threonine-protein kinase pim-2 (Homo sapiens) (UniProt Q9P1W9). The assay can be described thus: Inhibition of human PIM2 assessed as residual activity at 1 uM using RBER-GSK3(14-27) as substrate in presence of 33P-ATP by ProQinase assay relative to control.
The target in assay [10] is Serine/threonine-protein kinase MARK1 (Homo sapiens) (UniProt Q9P0L2). The assay can be described thus: Inhibition of human MARK1 assessed as residual activity at 1 uM using RBER-CHKtide as substrate in presence of 33P-ATP by ProQinase assay relative to control.
Assay [11] addresses Serine/threonine-protein kinase MRCK alpha (Homo sapiens) (UniProt Q5VT25). In words: Inhibition of MRCKA (unknown origin) assessed as remaining activity at 1 uM by Kinome scan method relative to control.
For assay [12], the target named is Dual specificity protein kinase CLK1 (Homo sapiens) (UniProt P49759). In words: Inhibition of CLK1 (unknown origin) assessed as remaining activity at 1 uM by Kinome scan method relative to control.
In assay [13] the target is Serine/threonine-protein kinase MARK2 (Homo sapiens) (UniProt Q7KZI7). The assay can be described thus: Inhibition of human MARK2 assessed as residual activity at 1 uM using RBER-CHKtide as substrate in presence of 33P-ATP by ProQinase assay relative to control.
Assay [14] deals with Serine/threonine-protein kinase PAK 3 (Homo sapiens) (UniProt O75914). In words: Inhibition of human PAK3 assessed as residual activity at 1 uM using bio-4xCHKT as substrate in presence of 33P-ATP by ProQinase assay relative to control.
For assay [15], the target named is Serine/threonine-protein kinase tousled-like 1 (Homo sapiens) (UniProt Q9UKI8). In words: Inhibition of TLK1 (unknown origin) assessed as remaining activity at 1 uM by Kinome scan method relative to control.
Assay [16] addresses MAP/microtubule affinity-regulating kinase 3 (Homo sapiens) (UniProt P27448). The assay can be described thus: Inhibition of human MARK3 assessed as residual activity at 1 uM using RBER-CHKtide as substrate in presence of 33P-ATP by ProQinase assay relative to control.
Assay [17] concerns Receptor-type tyrosine-protein kinase FLT3 (Homo sapiens), P36888 [D835Y]. In words: Inhibition of human […] mutant assessed as residual activity at 1 uM using Poly(Ala,Glu,Lys,Tyr)6:2:5:1 as substrate in presence of 33P-ATP by ProQinase assay relative to control.

This note sets out measurements from ChEMBL document CHEMBL5696441 (Nat Chem Biol, 2011).

Chain of Serine/threonine-protein kinase MRCK alpha (Homo sapiens) (Q5VT25 whole entry): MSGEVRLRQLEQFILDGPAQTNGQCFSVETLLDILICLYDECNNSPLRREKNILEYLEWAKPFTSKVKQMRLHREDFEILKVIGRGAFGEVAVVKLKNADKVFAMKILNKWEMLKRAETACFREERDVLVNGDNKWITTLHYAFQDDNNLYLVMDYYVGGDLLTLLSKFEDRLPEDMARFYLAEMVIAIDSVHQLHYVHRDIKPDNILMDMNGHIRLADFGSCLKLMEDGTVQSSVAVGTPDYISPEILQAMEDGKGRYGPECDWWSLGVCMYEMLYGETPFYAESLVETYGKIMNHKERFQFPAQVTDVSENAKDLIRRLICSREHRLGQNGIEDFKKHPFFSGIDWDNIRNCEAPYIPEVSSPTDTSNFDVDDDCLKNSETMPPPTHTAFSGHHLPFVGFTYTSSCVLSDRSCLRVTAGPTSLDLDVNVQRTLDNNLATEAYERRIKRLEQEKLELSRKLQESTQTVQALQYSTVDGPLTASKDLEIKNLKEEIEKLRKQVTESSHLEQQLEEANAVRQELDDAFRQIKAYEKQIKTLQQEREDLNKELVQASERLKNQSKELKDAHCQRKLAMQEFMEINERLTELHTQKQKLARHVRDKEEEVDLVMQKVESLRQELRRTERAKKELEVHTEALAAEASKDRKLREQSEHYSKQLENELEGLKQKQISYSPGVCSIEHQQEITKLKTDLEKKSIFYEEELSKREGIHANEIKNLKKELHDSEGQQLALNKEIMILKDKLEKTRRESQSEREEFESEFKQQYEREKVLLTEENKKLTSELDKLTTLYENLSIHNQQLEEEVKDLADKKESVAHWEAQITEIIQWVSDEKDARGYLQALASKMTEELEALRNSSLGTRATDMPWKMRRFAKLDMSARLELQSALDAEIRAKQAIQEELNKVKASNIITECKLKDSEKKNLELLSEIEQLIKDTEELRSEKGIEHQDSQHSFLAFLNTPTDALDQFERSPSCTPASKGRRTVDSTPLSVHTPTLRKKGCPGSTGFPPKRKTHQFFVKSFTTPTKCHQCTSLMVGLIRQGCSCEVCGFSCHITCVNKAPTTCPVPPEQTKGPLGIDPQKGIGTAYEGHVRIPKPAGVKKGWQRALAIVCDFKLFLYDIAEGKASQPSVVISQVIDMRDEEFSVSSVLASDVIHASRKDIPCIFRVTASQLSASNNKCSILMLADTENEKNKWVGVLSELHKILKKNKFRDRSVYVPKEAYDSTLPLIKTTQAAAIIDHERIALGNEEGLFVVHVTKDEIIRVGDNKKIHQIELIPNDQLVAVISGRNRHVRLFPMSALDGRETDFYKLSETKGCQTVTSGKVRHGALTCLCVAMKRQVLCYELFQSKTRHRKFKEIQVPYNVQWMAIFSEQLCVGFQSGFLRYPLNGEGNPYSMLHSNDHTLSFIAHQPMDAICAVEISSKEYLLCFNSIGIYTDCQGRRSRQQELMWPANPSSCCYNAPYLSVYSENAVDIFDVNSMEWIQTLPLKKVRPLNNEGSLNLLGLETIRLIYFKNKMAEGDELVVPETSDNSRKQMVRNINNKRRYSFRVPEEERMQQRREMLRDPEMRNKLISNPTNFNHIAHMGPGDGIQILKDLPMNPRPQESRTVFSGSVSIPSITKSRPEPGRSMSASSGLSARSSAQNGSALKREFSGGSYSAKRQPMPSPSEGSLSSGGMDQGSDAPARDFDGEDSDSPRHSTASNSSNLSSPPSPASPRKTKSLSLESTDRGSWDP
Chain of Dual specificity protein kinase CLK1 (Homo sapiens) (P49759 whole entry, looked up): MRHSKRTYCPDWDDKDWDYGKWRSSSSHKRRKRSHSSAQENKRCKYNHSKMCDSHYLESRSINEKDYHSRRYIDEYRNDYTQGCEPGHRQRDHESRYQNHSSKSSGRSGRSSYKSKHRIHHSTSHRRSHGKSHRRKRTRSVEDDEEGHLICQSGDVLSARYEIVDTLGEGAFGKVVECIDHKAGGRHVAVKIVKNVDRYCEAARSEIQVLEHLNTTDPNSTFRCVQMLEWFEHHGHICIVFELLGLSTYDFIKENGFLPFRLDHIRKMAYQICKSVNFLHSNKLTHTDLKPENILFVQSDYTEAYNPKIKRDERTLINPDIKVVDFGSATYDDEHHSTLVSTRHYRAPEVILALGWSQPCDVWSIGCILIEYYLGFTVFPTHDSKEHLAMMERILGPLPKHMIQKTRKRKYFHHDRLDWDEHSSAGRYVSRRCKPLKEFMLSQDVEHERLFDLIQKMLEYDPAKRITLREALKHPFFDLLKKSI
Chain of Ephrin type-B receptor 3 (Homo sapiens) (P54753 whole entry): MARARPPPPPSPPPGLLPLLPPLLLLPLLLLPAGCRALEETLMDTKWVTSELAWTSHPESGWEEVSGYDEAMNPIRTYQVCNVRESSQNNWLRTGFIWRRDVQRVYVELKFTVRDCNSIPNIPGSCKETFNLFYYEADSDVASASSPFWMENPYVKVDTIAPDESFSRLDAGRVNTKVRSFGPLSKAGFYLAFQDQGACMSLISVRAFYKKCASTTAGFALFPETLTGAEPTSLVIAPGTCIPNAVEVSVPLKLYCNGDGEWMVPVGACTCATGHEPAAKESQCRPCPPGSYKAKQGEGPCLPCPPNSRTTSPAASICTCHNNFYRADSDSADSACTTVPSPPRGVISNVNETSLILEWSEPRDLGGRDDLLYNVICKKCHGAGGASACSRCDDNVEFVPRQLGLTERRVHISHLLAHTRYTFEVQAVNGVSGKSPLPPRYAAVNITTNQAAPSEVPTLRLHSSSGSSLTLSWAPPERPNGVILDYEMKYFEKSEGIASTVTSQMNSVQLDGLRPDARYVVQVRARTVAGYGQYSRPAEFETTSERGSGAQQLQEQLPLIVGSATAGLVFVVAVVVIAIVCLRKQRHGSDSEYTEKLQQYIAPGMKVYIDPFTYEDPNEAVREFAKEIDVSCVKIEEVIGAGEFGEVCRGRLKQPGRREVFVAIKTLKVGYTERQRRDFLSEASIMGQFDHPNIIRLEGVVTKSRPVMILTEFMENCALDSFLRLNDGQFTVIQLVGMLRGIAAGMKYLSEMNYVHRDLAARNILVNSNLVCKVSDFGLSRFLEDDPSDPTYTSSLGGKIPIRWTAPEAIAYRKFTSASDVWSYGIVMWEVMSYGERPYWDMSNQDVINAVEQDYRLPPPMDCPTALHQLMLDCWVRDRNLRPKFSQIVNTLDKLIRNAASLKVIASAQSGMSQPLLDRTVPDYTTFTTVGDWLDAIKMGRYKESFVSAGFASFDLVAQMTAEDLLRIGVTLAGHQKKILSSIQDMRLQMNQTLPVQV
Chain of Death-associated protein kinase 1 (Homo sapiens) (P53355 whole entry, looked up): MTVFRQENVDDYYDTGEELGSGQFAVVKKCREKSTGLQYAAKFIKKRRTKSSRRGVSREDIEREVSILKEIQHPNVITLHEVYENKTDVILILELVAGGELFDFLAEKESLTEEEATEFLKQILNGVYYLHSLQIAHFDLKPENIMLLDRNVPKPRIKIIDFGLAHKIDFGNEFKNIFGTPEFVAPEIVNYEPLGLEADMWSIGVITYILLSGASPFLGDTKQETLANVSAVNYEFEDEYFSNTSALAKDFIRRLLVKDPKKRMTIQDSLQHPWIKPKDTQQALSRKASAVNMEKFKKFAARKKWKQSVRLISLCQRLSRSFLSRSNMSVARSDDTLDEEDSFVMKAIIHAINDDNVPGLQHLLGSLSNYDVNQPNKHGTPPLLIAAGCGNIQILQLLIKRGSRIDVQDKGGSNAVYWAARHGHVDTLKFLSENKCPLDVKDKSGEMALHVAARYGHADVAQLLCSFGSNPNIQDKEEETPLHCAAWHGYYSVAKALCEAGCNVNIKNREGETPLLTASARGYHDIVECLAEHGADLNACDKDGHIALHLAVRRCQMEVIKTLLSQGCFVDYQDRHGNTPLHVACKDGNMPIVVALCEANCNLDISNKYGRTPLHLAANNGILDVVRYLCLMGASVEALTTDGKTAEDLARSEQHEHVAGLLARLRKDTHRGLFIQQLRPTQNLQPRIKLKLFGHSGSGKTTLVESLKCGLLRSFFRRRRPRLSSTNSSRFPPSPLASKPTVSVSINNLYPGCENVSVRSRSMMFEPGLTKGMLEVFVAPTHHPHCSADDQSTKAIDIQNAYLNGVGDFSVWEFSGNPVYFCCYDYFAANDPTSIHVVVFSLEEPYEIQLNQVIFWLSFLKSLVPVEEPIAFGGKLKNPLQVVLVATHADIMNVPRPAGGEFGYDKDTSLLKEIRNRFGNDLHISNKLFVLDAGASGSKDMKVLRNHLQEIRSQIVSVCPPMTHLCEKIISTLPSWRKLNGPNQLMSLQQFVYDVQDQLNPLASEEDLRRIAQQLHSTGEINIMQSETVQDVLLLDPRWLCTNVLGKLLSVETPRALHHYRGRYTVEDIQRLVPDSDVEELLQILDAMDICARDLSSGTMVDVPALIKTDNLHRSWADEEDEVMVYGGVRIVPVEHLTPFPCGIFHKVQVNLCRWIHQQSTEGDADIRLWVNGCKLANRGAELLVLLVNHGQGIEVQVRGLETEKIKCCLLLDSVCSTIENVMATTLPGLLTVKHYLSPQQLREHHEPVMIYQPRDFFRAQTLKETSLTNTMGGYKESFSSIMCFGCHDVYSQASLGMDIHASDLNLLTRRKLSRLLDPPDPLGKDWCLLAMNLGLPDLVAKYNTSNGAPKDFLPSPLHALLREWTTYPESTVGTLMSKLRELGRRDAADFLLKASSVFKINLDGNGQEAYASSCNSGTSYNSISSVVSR
Chain of Casein kinase I isoform gamma-2 (Homo sapiens) (P78368 whole entry, looked up, canonical isoform): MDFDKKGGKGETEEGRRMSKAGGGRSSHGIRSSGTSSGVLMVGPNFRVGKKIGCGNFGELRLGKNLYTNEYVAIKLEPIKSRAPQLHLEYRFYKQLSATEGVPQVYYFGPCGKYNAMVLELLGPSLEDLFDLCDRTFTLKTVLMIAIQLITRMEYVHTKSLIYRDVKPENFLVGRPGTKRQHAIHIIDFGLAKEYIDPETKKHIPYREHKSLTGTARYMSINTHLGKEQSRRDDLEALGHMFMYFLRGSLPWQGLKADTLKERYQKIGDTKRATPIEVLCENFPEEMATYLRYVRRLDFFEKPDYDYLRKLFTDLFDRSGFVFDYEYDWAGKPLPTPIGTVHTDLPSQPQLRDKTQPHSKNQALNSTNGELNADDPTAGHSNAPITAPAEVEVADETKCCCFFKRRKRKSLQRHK

On to `O=C1c2ccc(Nc3ccc(F)cc3F)cc2CCc2ccc(OC[C@H](O)CO)cc21` [Skepinone-L], for which the Activity in [1] was 96%; in assay [2] it was 82%; in [3], 83%; in assay [4], 108%; in assay [5] it was 86%; in [6], 97%. In addition, the Activity in assay [7] turned out to be 93%; in assay [8] it was 98%; in assay [9], 97%; in assay [10], 88%; in assay [11] it was 100%; in [12] it was 99%. In addition, the Activity in assay [13] was determined as 105%; in assay [14], 107%; in assay [15] it was 100%; in assay [16], 95%; in assay [17] it was 101%.
